In EP0726261A1, “Herbidical 1,2,4 thiadiazoles” (American Cyanamid Company, priority 1995, dated 1996):

Key:
Assay type in all cases: in vivo
[1] = test system: Zea mays; experiment: Preemergence herbicidal activity (Example 67); settings: pre, 800 g/ha; for herbicide rating, ZEAMX: rated about 1-3 weeks after treatment
Protocol: (§1) Herbicidal evaluation of compounds of the invention is conducted on the following plant species:
(§2) The soil is a prepared horticultural substrate containing 30% peat, 20% volcanic clay, 30% bark residues and 20% polyamide/styromull in a 1:3 mixture with loamy sand. Test solutions are prepared by dissolving the test compound in acetone containing 0.5% of an alkylphenol/ethylene oxide condensate under the trademark, TRITON® X-155, and diluting with water as needed. The test solutions are applied as a spray to the 3-6 week old seedling plants at dose rates corresponding to 800g/ha in a volume equivalent to 400 L/ha. A pneumatic spraying device employing a Teejet nozzle SS 8002E operating at 3 bar is used for a predetermined time. After spraying, the treated plants are placed on greenhouse benches and cared for in a manner commensurate with conventional greenhouse practice. After 10-21 days, the treated plants are evaluated and rated according to the rating system provided below.
(§3) The soil surface is then sprayed with test solutions as described in the postemergence evaluation hereinabove. After spraying, the treated cups are placed on greenhouse benches and cared for in the manner commensurate with conventional greenhouse practice. About 1-3 weeks after treatment the cups are evaluated and rated according to the rating system provided hereinabove.

[2] = test system: Veronica persica; experiment: Preemergence herbicidal activity (Example 67); settings: pre, 800 g/ha; for herbicide rating, VERPE: rated about 1-3 weeks after treatment
Protocol: as §1, §2, §3

[3] = test system: Amaranthus retroflexus; experiment: Preemergence herbicidal activity (Example 67); settings: pre, 800 g/ha; for herbicide rating, AMARE: rated about 1-3 weeks after treatment
Protocol: as §1, §2, §3

[4] = test system: Chenopodium album; experiment: Preemergence herbicidal activity (Example 67); settings: pre, 800 g/ha; for herbicide rating, CHEAL: rated about 1-3 weeks after treatment
Protocol: as §1, §2, §3

[5] = test system: Galium aparine; experiment: Preemergence herbicidal activity (Example 67); settings: pre, 800 g/ha; for herbicide rating, GALAP: rated about 1-3 weeks after treatment
Protocol: as §1, §2, §3

[6] = test system: Ipomoea hederacea; experiment: Preemergence herbicidal activity (Example 67); settings: pre, 800 g/ha; for herbicide rating, IPOHE: rated about 1-3 weeks after treatment
Protocol: as §1, §2, §3

[7] = test system: Helianthus annuus; experiment: Preemergence herbicidal activity (Example 67); settings: pre, 800 g/ha; for herbicide rating, HELAN: rated about 1-3 weeks after treatment
Protocol: as §1, §2, §3

[8] = test system: Abutilon theophrasti; experiment: Preemergence herbicidal activity (Example 67); settings: pre, 800 g/ha; for herbicide rating, ABUTH: rated about 1-3 weeks after treatment
Protocol: as §1, §2, §3

[9] = test system: Setaria viridis; experiment: Preemergence herbicidal activity (Example 67); parameters: herbicide rating, SETVI: scale not given here; settings: pre, 800 g/ha; for herbicide rating, SETVI: rated about 1-3 weeks after treatment
Protocol: as §1, §2, §3

[10] = test system: Hordeum vulgare; experiment: Preemergence herbicidal activity (Example 67); parameters: herbicide rating, HORVW: scale not given here; settings: pre, 800 g/ha; for herbicide rating, HORVW: rated about 1-3 weeks after treatment
Protocol: as §1, §2, §3

[11] = test system: Zea mays; experiment: Postemergence herbicidal activity (Example 67); settings: pos, 800 g/ha; for herbicide rating, ZEAMX: rated after 10-21 days
Protocol: as §1, §2

[12] = test system: Veronica persica; experiment: Postemergence herbicidal activity (Example 67); settings: pos, 800 g/ha; for herbicide rating, VERPE: rated after 10-21 days
Protocol: as §1, §2

[13] = test system: Amaranthus retroflexus; experiment: Postemergence herbicidal activity (Example 67); settings: pos, 800 g/ha; for herbicide rating, AMARE: rated after 10-21 days
Protocol: as §1, §2

[14] = test system: Triticum aestivum; experiment: Postemergence herbicidal activity (Example 67); settings: pos, 800 g/ha; for herbicide rating, TRZAW: rated after 10-21 days
Protocol: as §1, §2

[15] = test system: Chenopodium album; experiment: Postemergence herbicidal activity (Example 67); settings: pos, 800 g/ha; for herbicide rating, CHEAL: rated after 10-21 days
Protocol: as §1, §2

[16] = test system: Hordeum vulgare; experiment: Postemergence herbicidal activity (Example 67); settings: pos, 800 g/ha; for herbicide rating, HORVW: rated after 10-21 days
Protocol: as §1, §2

[17] = test system: Alopecurus myosuroides; experiment: Postemergence herbicidal activity (Example 67); settings: pos, 800 g/ha; for herbicide rating, ALOMY: rated after 10-21 days
Protocol: as §1, §2

[18] = test system: Galium aparine; experiment: Postemergence herbicidal activity (Example 67); settings: pos, 800 g/ha; for herbicide rating, GALAP: rated after 10-21 days
Protocol: as §1, §2

[19] = test system: Setaria viridis; experiment: Postemergence herbicidal activity (Example 67); settings: pos, 800 g/ha; for herbicide rating, SETVI: rated after 10-21 days
Protocol: as §1, §2

[20] = test system: Ipomoea hederacea; experiment: Postemergence herbicidal activity (Example 67); settings: pos, 800 g/ha; for herbicide rating, IPOHE: rated after 10-21 days
Protocol: as §1, §2

[21] = test system: Helianthus annuus; experiment: Postemergence herbicidal activity (Example 67); settings: pos, 800 g/ha; for herbicide rating, HELAN: rated after 10-21 days
Protocol: as §1, §2

[22] = test system: Abutilon theophrasti; experiment: Postemergence herbicidal activity (Example 67); settings: pos, 800 g/ha; for herbicide rating, ABUTH: rated after 10-21 days
Protocol: as §1, §2

[23] = test system: Triticum aestivum; experiment: Preemergence herbicidal activity (Example 67); parameters: herbicide rating, TRZAW: scale not given here; settings: pre, 800 g/ha; for herbicide rating, TRZAW: rated about 1-3 weeks after treatment
Protocol: as §1, §2, §3

[24] = test system: Alopecurus myosuroides; experiment: Preemergence herbicidal activity (Example 67); parameters: herbicide rating, ALOMY: scale not given here; settings: pre, 800 g/ha; for herbicide rating, ALOMY: rated about 1-3 weeks after treatment
Protocol: as §1, §2, §3

COc1ccc(-c2nsc(C(=O)NC(C)c3cccs3)n2)cc1 (racemic) [Example 35]
herbicide rating, ZEAMX [1]: 0 | herbicide rating, VERPE [2]: 4 (30-44%) | herbicide rating, AMARE [3]: 0 | herbicide rating, CHEAL [4]: 5 (45-64%) | herbicide rating, GALAP [5]: 4 (30-44%) | herbicide rating, IPOHE [6]: 0 | herbicide rating, HELAN [7]: 3 (16-29%) | herbicide rating, ABUTH [8]: 0 | herbicide rating, SETVI [9]: 0 | herbicide rating, HORVW [10]: 0 | herbicide rating, ZEAMX [11]: 3 (16-29%) | herbicide rating, VERPE [12]: 2 (6-15%) | herbicide rating, AMARE [13]: 3 (16-29%) | herbicide rating, TRZAW [14]: 3 (16-29%) | herbicide rating, CHEAL [15]: 5 (45-64%) | herbicide rating, HORVW [16]: 3 (16-29%) | herbicide rating, ALOMY [17]: 3 (16-29%) | herbicide rating, GALAP [18]: 4 (30-44%) | herbicide rating, SETVI [19]: 8 (91-99%) | herbicide rating, IPOHE [20]: 4 (30-44%) | herbicide rating, HELAN [21]: 5 (45-64%) | herbicide rating, ABUTH [22]: 4 (30-44%) | herbicide rating, TRZAW [23]: 0 | herbicide rating, ALOMY [24]: 0

COc1ccc(-c2nsc(C(=O)NC(C)c3ccc(C)s3)n2)cc1 (racemic) [Example 37]
herbicide rating, ZEAMX [1]: 0 | herbicide rating, VERPE [2]: 0 | herbicide rating, AMARE [3]: 0 | herbicide rating, CHEAL [4]: 6 (65-79%) | herbicide rating, GALAP [5]: 0 | herbicide rating, IPOHE [6]: 0 | herbicide rating, HELAN [7]: 0 | herbicide rating, ABUTH [8]: 0 | herbicide rating, SETVI [9]: 0 | herbicide rating, HORVW [10]: 0 | herbicide rating, ZEAMX [11]: 0 | herbicide rating, VERPE [12]: 0 | herbicide rating, AMARE [13]: 0 | herbicide rating, TRZAW [14]: 3 (16-29%) | herbicide rating, CHEAL [15]: 3 (16-29%) | herbicide rating, HORVW [16]: 2 (6-15%) | herbicide rating, ALOMY [17]: 2 (6-15%) | herbicide rating, GALAP [18]: 0 | herbicide rating, SETVI [19]: 4 (30-44%) | herbicide rating, IPOHE [20]: 1 (1-5%) | herbicide rating, HELAN [21]: 0 | herbicide rating, ABUTH [22]: 0 | herbicide rating, TRZAW [23]: 0 | herbicide rating, ALOMY [24]: 0

CC(NC(=O)c1nc(-c2ccccc2F)ns1)c1cccs1 (racemic) [Example 38]
herbicide rating, ZEAMX [1]: 0 | herbicide rating, VERPE [2]: 2 (6-15%) | herbicide rating, AMARE [3]: 4 (30-44%) | herbicide rating, CHEAL [4]: 5 (45-64%) | herbicide rating, GALAP [5]: 0 | herbicide rating, IPOHE [6]: 0 | herbicide rating, HELAN [7]: 0 | herbicide rating, ABUTH [8]: 0 | herbicide rating, SETVI [9]: 0 | herbicide rating, HORVW [10]: 0 | herbicide rating, ZEAMX [11]: 3 (16-29%) | herbicide rating, VERPE [12]: 1 (1-5%) | herbicide rating, AMARE [13]: 3 (16-29%) | herbicide rating, TRZAW [14]: 3 (16-29%) | herbicide rating, CHEAL [15]: 6 (65-79%) | herbicide rating, HORVW [16]: 3 (16-29%) | herbicide rating, ALOMY [17]: 4 (30-44%) | herbicide rating, GALAP [18]: 5 (45-64%) | herbicide rating, SETVI [19]: 8 (91-99%) | herbicide rating, IPOHE [20]: 5 (45-64%) | herbicide rating, HELAN [21]: 7 (80-90%) | herbicide rating, ABUTH [22]: 8 (91-99%) | herbicide rating, TRZAW [23]: 0 | herbicide rating, ALOMY [24]: 0

CC(NC(=O)c1nsc(-c2ccc(F)cc2)n1)c1cccs1 (racemic) [Example 39]
herbicide rating, ZEAMX [1]: 0 | herbicide rating, VERPE [2]: 0 | herbicide rating, AMARE [3]: 4 (30-44%) | herbicide rating, CHEAL [4]: 0 | herbicide rating, GALAP [5]: 0 | herbicide rating, IPOHE [6]: 0 | herbicide rating, HELAN [7]: 0 | herbicide rating, ABUTH [8]: 0 | herbicide rating, SETVI [9]: 0 | herbicide rating, HORVW [10]: 0 | herbicide rating, ZEAMX [11]: 6 (65-79%) | herbicide rating, VERPE [12]: 2 (6-15%) | herbicide rating, AMARE [13]: 3 (16-29%) | herbicide rating, TRZAW [14]: 3 (16-29%) | herbicide rating, CHEAL [15]: 4 (30-44%) | herbicide rating, HORVW [16]: 3 (16-29%) | herbicide rating, ALOMY [17]: 3 (16-29%) | herbicide rating, GALAP [18]: 5 (45-64%) | herbicide rating, SETVI [19]: 8 (91-99%) | herbicide rating, IPOHE [20]: 4 (30-44%) | herbicide rating, HELAN [21]: 6 (65-79%) | herbicide rating, ABUTH [22]: 4 (30-44%) | herbicide rating, TRZAW [23]: 0 | herbicide rating, ALOMY [24]: 0

Cc1ccc(-c2nc(C(=O)NC(C)c3cccs3)ns2)cc1 (racemic) [Example 41]
ZEA MX rating [1]: 4 (30-44%) | VER PE rating [2]: 3 (16-29%) | AMA RE rating [3]: 0 | CHE AL rating [4]: 3 (16-29%) | GAL AP rating [5]: 0 | IPO HE rating [6]: 0 | HEL AN rating [7]: 0 | ABU TH rating [8]: 0 | SET VI rating [9]: 0 | HOR VW rating [10]: 0 | ZEA MX rating [11]: 2 (6-15%) | VER PE rating [12]: 0 | AMA RE rating [13]: 3 (16-29%) | TRZ AW rating [14]: 2 (6-15%) | CHE AL rating [15]: 5 (45-64%) | HOR VW rating [16]: 2 (6-15%) | ALO MY rating [17]: 2 (6-15%) | GAL AP rating [18]: 3 (16-29%) | SET VI rating [19]: 8 (91-99%) | IPO HE rating [20]: 3 (16-29%) | HEL AN rating [21]: 5 (45-64%) | ABU TH rating [22]: 1 (1-5%) | TRZ AW rating [23]: 0 | ALO MY rating [24]: 0

CC(NC(=O)c1nc(-c2cccc(F)c2)ns1)c1cccs1 (racemic) [Example 43]
ZEA MX rating [1]: 0 | VER PE rating [2]: 2 (6-15%) | AMA RE rating [3]: 0 | CHE AL rating [4]: 4 (30-44%) | GAL AP rating [5]: 2 (6-15%) | IPO HE rating [6]: 2 (6-15%) | HEL AN rating [7]: 0 | ABU TH rating [8]: 0 | SET VI rating [9]: 0 | HOR VW rating [10]: 0 | ZEA MX rating [11]: 0 | VER PE rating [12]: 2 (6-15%) | AMA RE rating [13]: 0 | TRZ AW rating [14]: 2 (6-15%) | CHE AL rating [15]: 4 (30-44%) | HOR VW rating [16]: 2 (6-15%) | ALO MY rating [17]: 1 (1-5%) | GAL AP rating [18]: 2 (6-15%) | SET VI rating [19]: 3 (16-29%) | IPO HE rating [20]: 2 (6-15%) | HEL AN rating [21]: 3 (16-29%) | ABU TH rating [22]: 1 (1-5%) | TRZ AW rating [23]: 0 | ALO MY rating [24]: 0
